Where two headings read alike, the source gives them in different places. Starred links: 1 amine or outer side, 2 acyl side, 3 side chain; linkers in the order of their positions; H or OH if unused. Positions of bridges follow the written chain, without caps; N, C: chain ends. Non-standard residues stand in square brackets, D forms with d. Residues, ends and D or L forms follow the SMILES beside them. ξ: configuration not given here. *: point of attachment. X3 = O=C([C@@H]1C[C@@H](Cc2ccc(F)cc2)CN1[*:1])[*:2]; Pro(4R-NH2) = N[C@H]1CN[C@H](C(=O)O)C1; Bta = N[C@@H](Cc1csc2ccccc12)C(=O)O; Cyclobutanecarbonyl = O=C(C1CCC1)*; Hyp = O=C(O)[C@@H]1C[C@@H](O)CN1; NMeF = CN[C@@H](Cc1ccccc1)C(=O)O; 2Pal = N[C@@H](Cc1ccccn1)C(=O)O; NMeNle = CCCC[C@H](NC)C(=O)O; NMeM = CN[C@@H](CCSC)C(=O)O; dPip = O=C(O)[C@H]1CCCCN1; NMeA = CN[C@@H](C)C(=O)O; Orn = NCCC[C@H](N)C(=O)O; Dab = NCC[C@H](N)C(=O)O; Dap = NC[C@H](N)C(=O)O; Alloc = C=CCOC(=O)*; Bz = O=C(c1ccccc1)*; ξC = NC(CS)C(=O)O; Sar = CNCC(=O)O
Tests used:
Human PD-L1/PD-1 = biological target: T1, Human PD-L1/PD-1 (Homo sapiens, UniProt Q9NZQ7); experiment: HTRF PD-1-Ig/PD-L1-His binding assay (human PD-L1); conditions: cluster symbol
T1 construct: made in house; host or cells: HEK293T
Outline: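 Ig- and His-fused extracellular PD-1/PD-L1 binding in BSA/Tween-20 dPBS. HTRF with Eu anti-Ig (1 nM final) and APC anti-His (20 nM final).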

[1] = biological target: T2, LK35.2-hPD-L1 cells / PE-labeled PD-1-Ig (Homo sapiens, UniProt Q9NZQ7); experiment: LK35.2-hPD-L1 cell binding high-content screening assay; format: cell-based; conditions: cluster symbol
T2 construct: expressed in transfected cells; host or cells: LK35.2 mouse B cell line
Outline: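 Using overnight-cultured LK35.2-hPD-L1 mouse B cells, compound was co-incubated with phycoerythrin-tagged human PD-1-Ig (final 1 nM) at 37 °C for one hour. Unbound label was removed by triple dPBS washing prior to high-content image acquisition and analysis.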

[2] = cell binding assay, cell line not given, read-out: CBA IC50 cluster
[3] = cell line of CBA not given (LK35.2-hPD-L1 or 293T-hPD-L1), read-out: CBA IC50 cluster

T2 sequence (Q9NZQ7 19-290): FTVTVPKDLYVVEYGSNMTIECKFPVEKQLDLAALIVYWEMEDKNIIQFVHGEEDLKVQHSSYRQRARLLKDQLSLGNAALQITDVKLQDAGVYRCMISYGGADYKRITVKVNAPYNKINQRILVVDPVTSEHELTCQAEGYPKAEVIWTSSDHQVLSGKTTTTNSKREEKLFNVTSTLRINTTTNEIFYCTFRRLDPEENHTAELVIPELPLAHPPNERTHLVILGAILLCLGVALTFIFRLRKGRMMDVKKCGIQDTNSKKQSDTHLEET
T1 sequence (Q9NZQ7 with tags, fused parts or gaps): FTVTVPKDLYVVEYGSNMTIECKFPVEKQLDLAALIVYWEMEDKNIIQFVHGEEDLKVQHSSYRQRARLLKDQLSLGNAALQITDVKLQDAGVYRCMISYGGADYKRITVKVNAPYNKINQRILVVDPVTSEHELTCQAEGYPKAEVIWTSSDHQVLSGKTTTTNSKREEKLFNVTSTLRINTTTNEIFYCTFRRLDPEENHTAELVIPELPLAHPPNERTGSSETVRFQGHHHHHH

SMILES | IC50 (Human PD-L1/PD-1; read-out: HTRF IC50 cluster) [nM] | IC50 [1, 2] [nM] | IC50 [1, 3] [nM] | IC50 (Human PD-L1/PD-1; HTRF IC50 cluster) [nM] | IC50 ([1]; CBA IC50 cluster, cell line of CBA not given (LK35.2-hPD-L1 or 293T-hPD-L1)) [nM]
CCCC[C@H]1C(=O)N(C)[C@@H](CCCC)C(=O)N[C@@H](CCN)C(=O)N[C@H](C(=O)NCC(N)=O)CSCC(=O)N[C@@H](Cc2ccc(O)cc2)C(=O)N(C)[C@@H](C)C(=O)N[C@@H](CCN)C(=O)N2CCC[C@H]2C(=O)N[C@@H](CN)C(=O)N[C@@H](CC(C)C)C(=O)N2C[C@H](O)C[C@H]2C(=O)N[C@@H](Cc2c[nH]c3ccccc23)C(=O)N[C@@H](CCN)C(=O)N[C@@H](Cc2c[nH]c3ccccc23)C(=O)N1C [Example 5140] ({CH2CO}-Y[NMeA][Dab]P[Dap]L[Hyp]W[Dab]W[NMeNle][NMeNle][Dab]CG-NH2; thioether N-14) | 6.76 to 30.3 | 4.78 to 72.9 |  |  | 
CCCC[C@H]1C(=O)N(C)[C@@H](CCCC)C(=O)N[C@@H](CCCNC(=N)N)C(=O)N[C@H](C(=O)NCC(N)=O)CSCC(=O)N[C@@H](Cc2ccccc2)C(=O)N(C)[C@@H](C)C(=O)N[C@@H](CC(N)=O)C(=O)N2CCC[C@H]2C(=O)N[C@@H](Cc2cnc[nH]2)C(=O)N[C@@H](CCC(N)=O)C(=O)N(C)CC(=O)N[C@@H](Cc2c[nH]c3ccccc23)C(=O)N[C@@H](CO)C(=O)N[C@@H](Cc2c[nH]c3ccccc23)C(=O)N1C [Example 6006] ({CH2CO}-F[NMeA]NPHQ[Sar]WSW[NMeNle][NMeNle]RCG-NH2; thioether N-14) | 6.76 to 30.3 | 4.78 to 72.9 |  |  | 
CCCC[C@H]1C(=O)N[C@@H](CCCNC(=N)N)C(=O)NC(C(=O)NCC(N)=O)CSCC(=O)N[C@@H](Cc2ccc(O)cc2)C(=O)N(C)[C@@H](C)C(=O)N[C@@H](CC(N)=O)C(=O)N2CCC[C@H]2C(=O)N[C@@H](CN)C(=O)N[C@@H](CC(C)C)C(=O)N2CCC[C@H]2C(=O)N[C@@H](Cc2c[nH]c3ccccc23)C(=O)N[C@@H](CO)C(=O)N[C@@H](Cc2csc3ccccc23)C(=O)N(C)[C@@H](CCSC)C(=O)N1C (stereo partly shown) [Example 9090] ({CH2CO}-Y[NMeA]NP[Dap]LPWS[Bta][NMeM][NMeNle]R[ξC]G-NH2; thioether N-14) | 0.385 to 6.74 | 0.158 to 4.71 |  |  | 
C=CCOC(=O)NCCC[C@@H]1NC(=O)[C@H](CCCC)N(C)C(=O)[C@H](CCCC)N(C)C(=O)[C@H](Cc2csc3ccccc23)NC(=O)[C@H](CCNC(=O)OCC=C)NC(=O)[C@H](Cc2c[nH]c3ccccc23)NC(=O)[C@@H]2C[C@@H](O)CN2C(=O)[C@H](CCC(=O)O)NC(=O)[C@H](Cc2cnc[nH]2)NC(=O)[C@@H]2CCCN2C(=O)[C@H](CCCN)NC(=O)[C@H](C)N(C)C(=O)[C@H](Cc2ccc(O)cc2)NC(=O)CSC[C@@H](C(=O)NCC(N)=O)NC1=O [Example 1230] ({CH2CO}-Y[NMeA][Orn]PHE[Hyp]W[Dab](Alloc)[Bta][NMeNle][NMeNle][Orn](Alloc)CG-NH2; thioether N-14) | > 30.5 |  | > 74.3 |  | 
CCCC[C@H]1C(=O)N(C)[C@@H](CCCC)C(=O)N[C@@H](CCCNC(=N)N)C(=O)N[C@H](C(=O)NCC(N)=O)CSCC(=O)N[C@@H](Cc2ccc(O)cc2)C(=O)N(C)[C@@H](C)C(=O)N[C@@H](CC(N)=O)C(=O)N2CCC[C@H]2C(=O)N[C@@H](Cc2cnc[nH]2)C(=O)N[C@@H](CC(C)C)C(=O)N2CCC[C@H]2C(=O)N[C@@H](Cc2c[nH]c3ccccc23)C(=O)N[C@@H](CO)C(=O)N[C@@H](Cc2c[nH]c3ccccc23)C(=O)N1C [Example 1016] ({CH2CO}-Y[NMeA]NPHLPWSW[NMeNle][NMeNle]RCG-NH2; thioether N-14) | 0.385 to 6.74 |  | 0.158 to 4.71 |  | 
CCCC[C@H]1C(=O)N(C)[C@@H](CCCC)C(=O)N[C@@H](CCCNC(=N)N)C(=O)N[C@H](C(=O)NCC(N)=O)CSCC(=O)N[C@@H](Cc2ccccc2)C(=O)N(C)[C@@H](C)C(=O)N[C@@H](CC(N)=O)C(=O)N2CCC[C@H]2C(=O)N[C@@H](Cc2c[nH]cn2)C(=O)N[C@@H](CC(C)C)C(=O)N[C@@H](CCNC(=O)c2ccccc2)C(=O)N[C@@H](Cc2c[nH]c3ccccc23)C(=O)N[C@@H](CO)C(=O)N[C@@H](Cc2c[nH]c3ccccc23)C(=O)N1C [Example 1022] ({CH2CO}-F[NMeA]NPHL[Dab](Bz)WSW[NMeNle][NMeNle]RCG-NH2; thioether N-14) |  |  |  | > 30.5 | > 74.3
CCCC[C@H]1C(=O)N(C)[C@@H](CCCC)C(=O)N[C@@H](CCCNC(=N)N)C(=O)NC(C(=O)NCC(N)=O)CSCC(=O)N[C@@H](Cc2ccc(O)cc2)C(=O)N(C)[C@@H](C)C(=O)N[C@@H](CC(N)=O)C(=O)N2C[C@H](O)C[C@H]2C(=O)N[C@@H](Cc2cnc[nH]2)C(=O)N[C@@H](CC(C)C)C(=O)N2CCC[C@@H]2C(=O)N[C@@H](Cc2c[nH]c3ccccc23)C(=O)N[C@@H](CO)C(=O)N[C@@H](Cc2csc3ccccc23)C(=O)N1C (stereo partly shown) [Example 9001] ({CH2CO}-Y[NMeA]N[Hyp]HL[dP]WS[Bta][NMeNle][NMeNle]R[ξC]G-NH2; thioether N-14) | 6.76 to 30.3 | 0.158 to 4.71 |  |  | 
CCCC[C@H]1C(=O)N(C)[C@@H](CCCC)C(=O)N[C@@H](CCCNC(=N)N)C(=O)N[C@H](C(=O)NCC(N)=O)CSCC(=O)N[C@@H](Cc2ccc(O)cc2)C(=O)N(C)[C@@H](C)C(=O)N[C@@H](CC(N)=O)C(=O)N2CCC[C@H]2C(=O)N[C@@H](Cc2ccccn2)C(=O)N[C@@H](CC(C)C)C(=O)N2C[C@H](O)C[C@H]2C(=O)N[C@@H](Cc2c[nH]c3ccccc23)C(=O)N[C@@H](CO)C(=O)N[C@@H](Cc2c[nH]c3ccccc23)C(=O)N1C [Example 7026] ({CH2CO}-Y[NMeA]NP[2Pal]L[Hyp]WSW[NMeNle][NMeNle]RCG-NH2; thioether N-14) | 6.76 to 30.3 | 4.78 to 72.9 |  |  | 
CCCC[C@H]1C(=O)N(C)[C@@H](CCCC)C(=O)N[C@@H](C)C(=O)N[C@H](C(=O)NCC(N)=O)CSCC(=O)N[C@@H](Cc2ccc(O)cc2)C(=O)N(C)[C@@H](C)C(=O)N[C@@H](CC(=O)O)C(=O)N2CCC[C@H]2C(=O)N[C@@H](Cc2c[nH]cn2)C(=O)N[C@@H](CCC(=O)O)C(=O)N2C[C@H](Cc3ccc(F)cc3)C[C@H]2C(=O)N[C@@H](Cc2c[nH]c3ccccc23)C(=O)N[C@@H](CCN)C(=O)N[C@@H](Cc2c[nH]c3ccccc23)C(=O)N1C [Example 13012] ({CH2CO}-Y[NMeA]DPHE[X3]W[Dab]W[NMeNle][NMeNle]ACG-NH2; thioether N-14) | 0.385 to 6.74 | 0.158 to 4.71 |  |  | 
CCCC[C@H]1C(=O)N2CCC[C@@H]2C(=O)N2C[C@H](N)C[C@H]2C(=O)N[C@@H](C(C)C)C(=O)N(C)[C@@H](Cc2ccccc2)C(=O)N[C@@H](Cc2ccc(O)cc2)C(=O)N(C)CC(=O)N[C@@H](Cc2c[nH]c3ccccc23)C(=O)N[C@@H](Cc2ccc(O)cc2)C(=O)N[C@@H](CC(C)C)C(=O)N[C@H](C(=O)NCC(N)=O)CSCC(=O)N[C@@H](Cc2ccccc2)C(=O)N(C)[C@@H](Cc2ccccc2)C(=O)N1C [Example 3175] ({CH2CO}-F[NMeF][NMeNle][dP][Pro(4R-NH2)]V[NMeF]Y[Sar]WYLCG-NH2; thioether N-13) | 6.76 to 30.3 |  | 4.78 to 72.9 |  | 
CCCC[C@@H]1C(=O)N(C)[C@H](CCCC)C(=O)N[C@@H](CCCN)C(=O)N[C@@H](C(=O)NCC(N)=O)CSCC(=O)N[C@@H](Cc2ccc(O)cc2)C(=O)N2CCNCC2C(=O)N[C@H](CC(N)=O)C(=O)N2CCC[C@H]2C(=O)N[C@H](Cc2c[nH]cn2)C(=O)N[C@@H](CC(C)C)C(=O)N2C[C@H](O)CC2C(=O)N[C@H](Cc2c[nH]c3ccccc23)C(=O)N[C@@H](CO)C(=O)N[C@@H](Cc2c[nH]c3ccccc23)C(=O)N1C (stereo partly shown) [Example 1220] | 6.76 to 30.3 |  | 4.78 to 72.9 |  | 
CCCC[C@H]1C(=O)N2CCCC[C@@H]2C(=O)N[C@@H](CC(=O)O)C(=O)N[C@@H](C(C)C)C(=O)N(C)[C@@H](Cc2ccccc2)C(=O)N[C@@H](Cc2ccc(O)cc2)C(=O)N(C)CC(=O)N[C@@H](Cc2c[nH]c3ccccc23)C(=O)N[C@@H](Cc2ccc(O)cc2)C(=O)N[C@@H](CC(C)C)C(=O)N[C@H](C(=O)NCC(N)=O)CSCC(=O)N[C@@H](Cc2ccccc2)C(=O)N(C)[C@@H](Cc2ccccc2)C(=O)N1C [Example 3573] ({CH2CO}-F[NMeF][NMeNle][dPip]DV[NMeF]Y[Sar]WYLCG-NH2; thioether N-13) | 6.76 to 30.3 | 4.78 to 72.9 |  |  | 
CCCC[C@H]1C(=O)N[C@@H](CCCNC(=N)N)C(=O)N[C@H](C(=O)NCC(N)=O)CSCC(=O)N[C@@H](Cc2ccccc2)C(=O)N(C)[C@@H](C)C(=O)N[C@@H](CC(N)=O)C(=O)N2CCC[C@H]2C(=O)N[C@@H](Cc2cnc[nH]2)C(=O)N[C@@H](CC(C)C)C(=O)N(C)CC(=O)N[C@@H](Cc2c[nH]c3ccccc23)C(=O)N[C@@H](CO)C(=O)N[C@@H](Cc2c[nH]c3ccccc23)C(=O)N[C@@H](CNC(=O)C2CCC2)C(=O)N1C [Example 1011] ({CH2CO}-F[NMeA]NPHL[Sar]WSW[Dap](Cyclobutanecarbonyl)[NMeNle]RCG-NH2; thioether N-14) | > 30.5 |  | > 74.3 |  | 
CCCC[C@H]1C(=O)N(C)[C@@H](CCCC)C(=O)N[C@@H](CCCNC(=N)N)C(=O)N[C@H](C(=O)NCC(N)=O)CSCC(=O)N[C@@H](Cc2ccc(O)cc2)C(=O)N(C)[C@@H](C)C(=O)N[C@@H](CCN)C(=O)N2CCC[C@H]2C(=O)NCC(=O)N[C@@H](CCC(=O)O)C(=O)N2C[C@H](O)C[C@H]2C(=O)N[C@@H](Cc2c[nH]c3ccccc23)C(=O)N[C@@H](CO)C(=O)N[C@@H](Cc2c[nH]c3ccccc23)C(=O)N1C [Example 5129] ({CH2CO}-Y[NMeA][Dab]PGE[Hyp]WSW[NMeNle][NMeNle]RCG-NH2; thioether N-14) | 0.385 to 6.74 | 4.78 to 72.9 |  |  | 
